Measured values reported in patent US7268160B2, “Remedies” (Takara Bio, Inc., priority 2000, dated 2007).

Key:
[1] = test system: NGF production in the L-M cells; assay: Enhancing activity for NGF production, Reference Example 1 method (24 hours culture, NGF enzyme immunoassay of culture medium); format: cell-based, murine; settings: for Enhancement of NGF production (in words): L-M cells; for Enhancement Ratio (%): negative control = 100%
Description: (§1) L-M cells (ATCC CCL-1.2) from murine fibroblasts were suspended in an M199 medium (manufactured by ICN) containing 0.5% bactopeptone (manufactured by Gibco BRL) so as to have a concentration of 1.5×10^5 cells/mi. The suspension was put in a 96-well plate in an amount of 0.1 ml each well, and the cells were aseptically cultured. After culturing the cells for 3 days, the medium was removed therefrom, and exchanged with an M199 medium containing 0.5% bovine serum albumin (manufactured by Sigma). Caffeic acid (manufactured by Sigma, dimethyl suif oxide (DMSO) solution), a substance known to have enhancing activity for NGF production, was added to each well containing the cells, so as to have a final concentration of 0, 50, 100 or 200 μM, and the cells were cultured for 24 hours. One having a caffeic acid concentration of 0 μM was used as a negative control. In addition, the final concentration of DM50 in each well was adjusted to 0.1%. After the termination of the culture, the NGF concentration in the culture medium was determined by an enzyme immunoassay method (NGF Emax Immuno Assay System, manufactured by Promega). The degree of the enhancement for NGF production of caffeic acid at each added amount was expressed in percentage as the enhancement ratio (%) on the basis of the NGF concentration in the cell culture medium at each added amount, when the NGF concentration in the cell culture medium of the negative control was defined as 100%. The experiment was carried out twice, and an average value was taken. It was shown that the enhancing activity for NGF production of caffeic acid could be assayed by this method.
The enhancing activity for NGF production of the compound (13) (manufactured by Funakoshi) was assayed in the same manner as in Reference Example 1. The compound (13) was added so as to have a final concentration of 0, 0.5, 1, 2, 5, 10, 20 or 50 μM.
The enhancing activity for NGF production of a compound (14) (manufactured by Sigma) was assayed in the same manner as in Reference Example 1. The compound (14) was added so as to have a final concentration of 0, 50, 100 or 200 μM.
The enhancing activity for NGF production of a compound (15) (manufactured by Sigma) was assayed in the same manner as in Reference Example 1. The compound (15) was added so as to have a final concentration of 0, 12.5, 25 or 50 μM.
The enhancing activity for NGF production of a compound (16) (manufactured by Wako Pure Chemical Industries) was assayed in the same manner as in Reference Example 1. The compound (16) was added so as to have a final concentration of 0, 25, 50 or 100 μM.

[2] = test system: NGF production in the L-M cells; assay: Enhancing activity for NGF production, Example 13 method (20 hours culture after addition); format: cell-based, murine; settings: for activity at 12.5 µM: added amount 12.5 μM; for activity at 6.25 µM: added amount 6.25 μM; for activity at 3.125 µM: added amount 3.125 μM; for Enhancement of NGF production (in words): L-M cells
Description: as §1
The enhancing activity for NGF production of each of the compounds (5) to (12), (17) to (22), (24) and (25) prepared in Preparation Examples 2 to 9 and Examples 1 to 8, and the compound (23) (rosemarinic acid; manufactured by Funakoshi), or caffeic acid (CA), 4-methylcatechol (4MC) and epinephrine (EN), substances conventionally known to enhance NGF production was assayed in the same manner as in Reference Example 1. In addition, the time period for cell culture after the addition of the compound was 20 hours. A negative control was set for every test of each compound. Each experiment was carried out twice, and an average value was taken.
(1) L-M cells (ATCC CCL-1.2) from murine fibroblasts were suspended in an M199 medium (manufactured by ICN) containing 0.5% bactopeptone (manufactured by Gibco) so as to have a concentration of 1.5×10^5 cells/ml. The suspension was put in a 96-well plate in an amount of 0.1 ml each well, and the cells were aseptically cultured. After culturing the cells for 3 days, the medium was removed therefrom, and exchanged with an M199 medium containing 0.5% bovine serum albumin (manufactured by Sigma). Thereto was added an yellow pigment (powder Sun Yellow No. 2, manufactured by San-Ei Gen F.F.I.) obtained by extraction from flower of Carthamus tinctorius LINNE) as the sample so as to have a final concentration of 0, 1.25, 2.5 or 5 mg/ml, and the cells were cultured for 20 hours. After the termination of the culture, the NGF concentration in the culture medium was assayed by an enzyme immunoassay method (NGF Emax Immuno Assay System, manufactured by Promega). The degree of the enhancement for NGF production was expressed in the percentage as an enhancement ratio (%), when the NGF concentration in the cell culture medium with no addition of the sample as the negative control was defined as 100%. The experiment was carried out twice, and an average value was taken. […]
The enhancing activity for NGF production of the purified safflomin A thus obtained was determined in the same manner as in Example 13. The purified safflomin A was added so as to have a fmal concentration of 0 or 2.5 mg/ml. […]

[3] = Mus musculus, added amount 50 μM, negative control = 100%, read-out: Enhancement Ratio (%)
[4] = Mus musculus, added amount 100 μM, negative control = 100%, read-out: Enhancement Ratio (%)
[5] = Mus musculus, added amount 200 μM, negative control = 100%, read-out: Enhancement Ratio (%)
[6] = Mus musculus, negative control = 100%, read-out: Enhancement Ratio (%)
[7] = Mus musculus, added amount 25 μM, negative control = 100%, read-out: Enhancement Ratio (%)
[8] = added amount 100 μM, negative control = 100%

Compound: O=C(O)/C=C/c1ccc(O)c(O)c1 [CA, caffeic acid, reference compound]
- Enhancement of NGF production (in words) [1]: enhanced NGF production in a concentration-dependent manner
- Enhancement Ratio (%) ([1]; added amount 50 μM): 89.7%
- Enhancement Ratio (%) ([1]; added amount 100 μM): 150%
- Enhancement Ratio (%) ([1]; added amount 200 μM): 349%
- activity at 50 µM [2, 3]: 165%
- activity at 100 µM [2, 4]: 170%
- activity at 200 µM [2, 5]: 200%

Compound: Cc1ccc(O)c(O)c1 [Compound 4MC, 4-methylcatechol, reference compound]
- activity at 12.5 µM [2, 6]: 143%
- activity at 25 µM [2, 7]: 313%

Compound: CC(=O)Oc1ccc(C(=O)/C=C/c2ccc(OC(C)=O)c(OC(C)=O)c2)c(OC(C)=O)c1 [Compound (5), 3,4,2′,4′-Tetraacetylbutein]
- activity at 6.25 µM [2, 6]: 684%

Compound: O=C(/C=C/c1ccc(O)c(O)c1)c1ccc(Cl)cc1Cl [Compound (6), 3,4-Dihydroxy-2′,4′-dichloro chalcone]
- activity at 6.25 µM [2, 6]: 763%
- activity at 12.5 µM [2, 6]: 864%

Compound: COc1ccc(C(=O)/C=C/c2ccc(O)c(O)c2)c(OC)c1 [Compound (7), 3,4-Dihydroxy-2′,4′-dimethoxy chalcone]
- activity at 6.25 µM [2, 6]: 359%
- activity at 12.5 µM [2, 6]: 410%
- activity at 25 µM [2, 7]: 899%

Compound: CC(=O)C=Cc1ccc(O)c(O)c1 [Compound (8), 4-(3,4-Dihydroxyphenyl)-3-buten-2-one]
- activity at 50 µM [2, 3]: 375%
- activity at 100 µM [2, 4]: 676%

Compound: O=C(/C=C/c1ccc(O)c(O)c1)C12CC3CC(CC(C3)C1)C2 [Compound (9), 1-Adamantyl-3-(3,4-dihydroxyphenyl)-2-propen-1-one]
- activity at 3.125 µM [2, 6]: 206%
- activity at 6.25 µM [2, 6]: 550%
- activity at 12.5 µM [2, 6]: 810%

Compound: O=C(CCc1ccc(O)c(O)c1)c1ccc(O)cc1O [Compound (10), Dihydrobutein]
- activity at 6.25 µM [2, 6]: 174%
- activity at 12.5 µM [2, 6]: 333%
- activity at 25 µM [2, 7]: 839%

Compound: O=C(C/C=C/c1ccc(O)c(O)c1)C12CC3CC(CC(C3)C1)C2 [Compound (11), 1-Adamantyl-4-(3,4-dihydroxyphenyl)-3-buten-1-one]
- activity at 0.781 µM ([2]; Mus musculus, added amount 0.781 μM, negative control = 100%, read-out: Enhancement Ratio (%)): 775%
- activity at 1.563 µM ([2]; Mus musculus, added amount 1.563 μM, negative control = 100%, read-out: Enhancement Ratio (%)): 866%

Compound: O=C(CC(O)Cc1ccc(O)c(O)c1)C12CC3CC(CC(C3)C1)C2 (centres unmarked) [Compound (12), 1-Adamantyl-3-hydroxy-4-(3,4-dihyroxyphenyl)-butan-1-one]
- activity at 3.125 µM [2, 6]: 108%
- activity at 6.25 µM [2, 6]: 364%
- activity at 12.5 µM [2, 6]: 966%
- activity at 25 µM [2, 7]: 908%

Compound: O=C(/C=C/c1ccc(O)c(O)c1)OCCc1ccccc1 [Compound (15), Caffeic acid phenylethylester]
- Enhancement of NGF production (in words) [1]: enhanced NGF production in the L-M cells in a concentration-dependent manner
- Enhancement Ratio (%) ([1]; added amount 12.5 μM): 236%
- Enhancement Ratio (%) ([1]; added amount 25 μM): 263%
- Enhancement Ratio (%) ([1]; added amount 50 μM): 320%

Compound: COc1cc(/C=C/C(=O)CC(=O)/C=C/c2ccc(O)c(OC)c2)ccc1O [Compound (16), Curcumin]
- Enhancement of NGF production (in words) [1]: enhanced NGF production in the L-M cells in a concentration-dependent manner
- Enhancement Ratio (%) ([1]; added amount 25 μM): 114%
- Enhancement Ratio (%) ([1]; added amount 50 μM): 116%
- Enhancement Ratio (%) ([1]; added amount 100 μM): 261%

Compound: O=C(/C=C/c1cc(O)c(O)c(O)c1)c1ccc(O)cc1O [Compound (17), 3,4,5,2′,4′-Pentahydroxychalcone]
- activity at 12.5 µM [2, 6]: 195%
- activity at 25 µM [2, 7]: 598%

Compound: O=C(/C=C/c1ccc(O)c(O)c1)c1cc(O)ccc1O [Compound (18), 3,4,2′,5′-Tetrahydroxychalcone]
- activity at 6.25 µM [2, 6]: 471%
- activity at 12.5 µM [2, 6]: 476%
- activity at 25 µM [2, 7]: 874%

Compound: O=C(/C=C/c1ccc(O)c(O)c1)c1ccc(O)c(O)c1 [Compound (19), 3,4,3′,4′-Tetrahydroxychalcone]
- activity at 12.5 µM [2, 6]: 269%
- activity at 25 µM [2, 7]: 312%
- activity at 50 µM [2, 3]: 844%

Compound: O=C(/C=C/c1ccc(O)c(O)c1)c1cc(O)cc(O)c1 [Compound (20), 3,4,3′,5′-Tetrahydroxychalcone]
- activity at 12.5 µM [2, 6]: 346%
- activity at 25 µM [2, 7]: 482%
- activity at 50 µM [2, 3]: 692%

Compound: O=C(/C=C/c1ccc(O)c(O)c1)c1ccccc1O [Compound (21), 3,4,2′-Trihydroxychalcone]
- activity at 25 µM [2, 7]: 223%
- activity at 50 µM [2, 3]: 229%
- activity at 100 µM [2, 4]: 502%

Compound: O=C(/C=C/c1ccc(O)c(O)c1)c1ccc(O)c(O)c1O [Compound (22), 3,4,2′,3′,4′-Pentahydroxy chalcone]
- activity at 50 µM [2, 3]: 124%
- activity at 100 µM [2, 4]: 130%
- activity at 200 µM [2, 5]: 242%

Compound: CNC[C@H](O)c1ccc(O)c(O)c1 [EN, epinephrine, reference compound]
- activity at 50 µM [2, 3]: 137%
- activity at 100 µM [2, 4]: 218%
- activity at 200 µM [2, 5]: 255%

Compound: COc1cc(O)c(CC=C(C)C)c(O)c1C(=O)/C=C/c1ccc(O)cc1 [xanthohumol, Xanthohumol]
- Enhancement of NGF production (in words) [2]: enhanced NGF production in the L-M cells in a concentration-dependent manner
- activity at 15.6 µM ([2]; Mus musculus, added amount 15.6 μM, negative control = 100%, read-out: Enhancement Ratio (%)): 160%
- activity at 31.3 µM ([2]; Mus musculus, added amount 31.3 μM, negative control = 100%, read-out: Enhancement Ratio (%)): 212%
- activity at 62.5 µM ([2]; Mus musculus, added amount 62.5 μM, negative control = 100%, read-out: Enhancement Ratio (%)): 473%
- activity at 125 µM ([2]; Mus musculus, added amount 125 μM, negative control = 100%, read-out: Enhancement Ratio (%)): 897%

Compound: Isoliquiritigenin [Compound (14)]
- Enhancement of NGF production (in words) [1]: enhanced NGF production in the L-M cells in a concentration-dependent manner
- Enhancement Ratio (%) ([1]; added amount 50 μM): 310%
- Enhancement Ratio (%) ([1]; added amount 100 μM): 550%
- Enhancement Ratio (%) ([1]; added amount 200 μM): 1884%

Compound: Rosmarinic acid [Compound (23)]
- Enhancement Ratio (%) [2, 8]: 110.9%
- Enhancement Ratio (%) ([2]; added amount 200 μM, negative control = 100%): 131.1%

Compound: Safflomin A
- Enhancement of NGF production (in words) [2]: enhanced NGF production of the L-M cells
- Enhancement Ratio (%) ([2]; added amount 2.5 mg/ml, negative control = 100%): 130.7%

Compound: Xanthoangelol [Compound (24)]
- Enhancement Ratio (%) ([2]; added amount 25 μM, negative control = 100%): 126.1%
- Enhancement Ratio (%) ([2]; added amount 50 μM, negative control = 100%): 202.6%
- Enhancement Ratio (%) [2, 8]: 265.7%

Compound: α-Hydroxybutein [Compound (25)]
- Enhancement Ratio (%) ([2]; added amount 31.25 μM, negative control = 100%): 160.6%
- Enhancement Ratio (%) ([2]; added amount 62.5 μM, negative control = 100%): 183.6%
- Enhancement Ratio (%) ([2]; added amount 125 μM, negative control = 100%): 273.6%
- Enhancement Ratio (%) ([2]; added amount 250 μM, negative control = 100%): 495.3%
